Measurements as given in patent US6506772B1, “Substituted [1,2,4]triazolo[1,5a]pyridine derivatives with activity as adenosine receptor ligands” (Hoffmann-La Roche Inc., priority 2000, dated 2003).

Experiments:
[1] = target: T1, human adenosine A2A receptor (Homo sapiens, UniProt P29274); assay: Human adenosine A2A receptor [3H]-SCH-58261 binding assay; details: for Ki: affinity to human adenosine A2A receptor, read-out: Ki HA2A; for selectivity (A1/A2a): calculated ratio of the affinity to the HA1 receptor to the HA2a receptor
T1 construct: expressed in transfected cells; host or cells: CHO cells, Semliki Forest virus expression system; membrane preparation

HA1 adenosine receptor = target: T2, HA1 adenosine receptor (Homo sapiens, UniProt P30542); assay: Human adenosine A1 receptor affinity (Ki hA1); type: binding; details: affinity to human adenosine A1 receptor
T2 sequence (P30542 1-326): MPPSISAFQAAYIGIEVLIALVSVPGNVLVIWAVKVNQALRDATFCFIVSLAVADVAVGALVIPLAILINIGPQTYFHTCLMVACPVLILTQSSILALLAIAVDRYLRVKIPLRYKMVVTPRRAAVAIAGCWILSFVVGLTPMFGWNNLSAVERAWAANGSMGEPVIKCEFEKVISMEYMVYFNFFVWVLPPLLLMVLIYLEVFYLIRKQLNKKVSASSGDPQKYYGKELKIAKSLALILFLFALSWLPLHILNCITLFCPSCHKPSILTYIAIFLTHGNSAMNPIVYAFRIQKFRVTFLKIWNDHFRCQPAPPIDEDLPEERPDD

T1 sequence (P29274 whole entry): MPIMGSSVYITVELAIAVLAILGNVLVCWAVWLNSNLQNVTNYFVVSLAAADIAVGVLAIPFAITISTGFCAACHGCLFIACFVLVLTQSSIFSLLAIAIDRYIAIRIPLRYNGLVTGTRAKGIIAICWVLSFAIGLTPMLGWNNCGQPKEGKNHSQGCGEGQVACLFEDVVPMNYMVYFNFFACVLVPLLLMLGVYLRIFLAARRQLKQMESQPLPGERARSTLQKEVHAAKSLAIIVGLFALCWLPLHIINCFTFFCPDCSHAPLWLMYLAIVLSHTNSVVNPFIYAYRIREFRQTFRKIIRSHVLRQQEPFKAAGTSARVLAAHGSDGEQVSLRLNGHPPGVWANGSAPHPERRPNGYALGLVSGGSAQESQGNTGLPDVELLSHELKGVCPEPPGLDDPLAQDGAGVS

SMILES | Ki [1] [nM] | selectivity (A1/A2a) [1] | Ki (HA1 adenosine receptor) [nM]
CCN(C(=O)c1cc(N)n2nc(-c3ccoc3)nc2c1)C(C)C [Example 221, 5-Amino-2-furan-3-yl-[1,2,4]triazolo[1,5-a]pyridine-7-carboxylic acid ethyl-isopropyl-amide] | 308 | 7.3 | 2260
CN(C(=O)c1cc(N)n2nc(-c3ccoc3)nc2c1)C1CCCCC1 [Example 222, 5-Amino-2-furan-3-yl-[1,2,4]triazolo[1,5-a]pyridine-7-carboxylic acid cyclohexyl-methyl-amide] | 241 | 8.5 | 2050
Nc1cc(C(=O)NC2CCc3ccccc32)cc2nc(-c3ccoc3)nn12 (stereo not drawn) [Example 223, 5-Amino-2-furan-3-yl-[1,2,4]triazolo[1,5-a]pyridine-7-carboxylic acid indan-1-ylamide] | 44.1 | 9.4 | 414
Nc1cc(C(=O)NCc2ccccc2)cc2nc(-c3ccoc3)nn12 [Example 224, 5-Amino-2-furan-3-yl-[1,2,4]triazolo[1,5-a]pyridine-7-carboxylic acid benzylamide] | 47.4 | 4.5 | 216
CC(NC(=O)c1cc(N)n2nc(-c3ccoc3)nc2c1)c1ccccc1 (stereo not drawn) [Example 225, 5-Amino-2-furan-3-yl-[1,2,4]triazolo[1,5-a]pyridine-7-carboxylic acid (1-phenyl-ethyl)-amide] | 103 | 1.2 | 125
CN(Cc1ccccc1)C(=O)c1cc(N)n2nc(-c3ccoc3)nc2c1 [Example 226, 5-Amino-2-furan-3-yl-[1,2,4]triazolo[1,5-a]pyridine-7-carboxylic acid benzyl-methyl-amide] | 121 | 8.4 | 1010
Nc1cc(C(=O)NCc2ccc(F)cc2)cc2nc(-c3ccoc3)nn12 [Example 227, 5-Amino-2-furan-3-yl-[1,2,4]triazolo[1,5-a]pyridine-7-carboxylic acid 4-fluoro-benzylamide] | 192 | 3.8 | 736
COc1ccccc1CNC(=O)c1cc(N)n2nc(-c3ccoc3)nc2c1 [Example 228, 5-Amino-2-furan-3-yl-[1,2,4]triazolo[1,5-a]pyridine-7-carboxylic acid 2-methoxy-benzylamide] | 30.5 | 5.4 | 164
CCN(CC)C(=O)c1cc(N)n2nc(-c3ccc(Cl)o3)nc2c1 [Example 233, 5-Amino-2-(5-chloro-furan-2-yl)-[1,2,4]triazolo[1,5-a]pyridine-7-carboxylic acid diethylamide] | 7.2 | 38.7 | 280
Nc1cc(C(=O)NC2CCCCC2)cc2nc(-c3ccc(Cl)o3)nn12 [Example 234, 5-Amino-2-(5-chloro-furan-2-yl)-[1,2,4]triazolo[1,5-a]pyridine-7-carboxylic acid cyclohexylamide] | 69.5 | 6.6 | 455
Nc1cc(C(=O)N2CCCC2)cc2nc(-c3ccc(Cl)o3)nn12 [Example 235, [5-Amino-2-(5-chloro-furan-2-yl)-[1,2,4]triazolo[1,5-a]pyridin-7-yl]-pyrrolidin-1-yl-methanone] | 18.1 | 42.5 | 770
Nc1cc(C(=O)N2CCCCC2)cc2nc(-c3ccc(Cl)o3)nn12 [Example 236, [5-Amino-2-(5-chloro-furan-2-yl)-[1,2,4]triazolo[1,5-a]pyridin-7-yl]-piperidin-1-yl-methanone] | 9.2 | 35.2 | 325
Nc1cc(C(=O)N2CCOCC2)cc2nc(-c3ccc(Cl)o3)nn12 [Example 237, [5-Amino-2-(5-chloro-furan-2-yl)-[1,2,4]triazolo[1,5-a]pyridin-7-yl]-morpholin-4-yl-methanone] | 52.3 | 13.5 | 708
Nc1cc(C(=O)NCc2ccccc2)cc2nc(-c3ccc(Cl)o3)nn12 [Example 238, 5-Amino-2-(5-chloro-furan-2-yl)-[1,2,4]triazolo[1,5-a]pyridine-7-carboxylic acid benzylamide] | 40.4 | 2.3 | 94.3
CC(C)N(Cc1ccccc1)C(=O)c1cc(N)n2nc(-c3ccc(Cl)o3)nc2c1 [Example 239, 5-Amino-2-(5-chloro-furan-2-yl)-[1,2,4]triazolo[1,5-a]pyridine-7-carboxylic acid benzyl-isopropyl-amide] | 1.7 | 14.6 | 25.1
CN(C(=O)c1cc(N)n2nc(-c3ccc(Cl)o3)nc2c1)C1CCCCC1 [Example 242, 5-Amino-2-(5-chloro-furan-2-yl)-[1,2,4]triazolo[1,5-a]pyridine-7-carboxylic acid cyclohexyl-methyl-amide] | 6.5 | 19.0 | 124
CCN(C(=O)c1cc(N)n2nc(-c3ccc(Cl)o3)nc2c1)C1CCCCC1 [Example 243, 5-Amino-2-(5-chloro-furan-2-yl)-[1,2,4]triazolo[1,5-a]pyridine-7-carboxylic acid cyclohexyl-ethyl-amide] | 3.3 | 28.6 | 95.6
Nc1cc(C(=O)NCc2ccc(Cl)cc2)cc2nc(-c3ccc(Cl)o3)nn12 [Example 244, 5-Amino-2-(5-chloro-furan-2-yl)-[1,2,4]triazolo[1,5-a]pyridine-7-carboxylic acid 4-chloro-benzylamide] | 218 | 0.9 | 190
Nc1cc(C(=O)NCc2ccc(F)cc2)cc2nc(-c3ccc(Cl)o3)nn12 [Example 245, 5-Amino-2-(5-chloro-furan-2-yl)-[1,2,4]triazolo[1,5-a]pyridine-7-carboxylic acid 4-fluoro-benzylamide] | 155 | 1.9 | 289
COc1ccccc1CNC(=O)c1cc(N)n2nc(-c3ccc(Cl)o3)nc2c1 [Example 246, 5-Amino-2-(5-chloro-furan-2-yl)-[1,2,4]triazolo[1,5-a]pyridine-7-carboxylic acid 2-methoxy-benzylamide] | 24 | 3.0 | 71.7

The remaining lines, values ahead:

Ki [1] [nM] | selectivity (A1/A2a) [1] | Ki (HA1 adenosine receptor) [nM] | SMILES
9.2 | 17.6 | 161 | CN(CC1CC1)C(=O)c1cc(N)n2nc(-c3ccc(Cl)o3)nc2c1 [Example 247, 5-Amino-2-(5-chloro-furan-2-yl)-[1,2,4]triazolo[1,5-a]pyridine-7-carboxylic acid cyclopropylmethyl-methyl-amide]
44.3 | 13.6 | 601 | CN(C)C(=O)c1cc(N)n2nc(-c3ccc(Cl)o3)nc2c1 [Example 248, 5-Amino-2-(5-chloro-furan-2-yl)-[1,2,4]triazolo[1,5-a]pyridine-7-carboxylic acid dimethylamide]
2090 | 3.0 | 6210 | Nc1cc(C(=O)N2CCC2)cc2nc(-c3ccc(Cl)o3)nn12 [Example 249, [5-Amino-2-(5-chloro-furan-2-yl)-[1,2,4]triazolo[1,5-a]pyridin-7-yl]-azetidin-1-yl-methanone]
19.1 | 24.0 | 459 | CCN(C)C(=O)c1cc(N)n2nc(-c3ccc(Cl)o3)nc2c1 [Example 250, 5-Amino-2-(5-chloro-furan-2-yl)-[1,2,4]triazolo[1,5-a]pyridine-7-carboxylic acid ethyl-methyl-amide]
14.7 | 24.5 | 360 | C=CCN(C)C(=O)c1cc(N)n2nc(-c3ccc(Cl)o3)nc2c1 [Example 251, 5-Amino-2-(5-chloro-furan-2-yl)-[1,2,4]triazolo[1,5-a]pyridine-7-carboxylic acid allyl-methyl-amide]
15.5 | 28.3 | 438 | CCCN(C)C(=O)c1cc(N)n2nc(-c3ccc(Cl)o3)nc2c1 [Example 252, 5-Amino-2-(5-chloro-furan-2-yl)-[1,2,4]triazolo[1,5-a]pyridine-7-carboxylic acid methyl-propyl-amide]
9.5 | 28.9 | 276 | Nc1cc(C(=O)N2CC=CCC2)cc2nc(-c3ccc(Cl)o3)nn12 [Example 253]
11.2 | 44.8 | 503 | CC1CCCN1C(=O)c1cc(N)n2nc(-c3ccc(Cl)o3)nc2c1 (stereo not drawn) [Example 254, [5-Amino-2-(5-chloro-furan-2-yl)-[1,2,4]triazolo[1,5-a]pyridin-7-yl]-(2-methyl-pyrrolidin-1-yl)-methanone]
3.2 | 28.9 | 92.5 | CCN(C(=O)c1cc(N)n2nc(-c3ccc(Cl)o3)nc2c1)C(C)C [Example 255, 5-Amino-2-(5-chloro-furan-2-yl)-[1,2,4]triazolo[1,5-a]pyridine-7-carboxylic acid ethyl-isopropyl-amide]
24.4 | 17.7 | 430 | Nc1cc(C(=O)N2CCSCC2)cc2nc(-c3ccc(Cl)o3)nn12 [Example 256, [5-Amino-2-(5-chloro-furan-2-yl)-[1,2,4]triazolo[1,5-a]pyridin-7-yl]-thiomorpholin-4-yl-methanone]
